Data from ChEMBL document CHEMBL5214931, “Recent advances in combretastatin A-4 codrugs for cancer therapy” (Eur J Med Chem, 2022).

What was measured:
MGC-803 [1] = test: Cytotoxicity against human MGC-803 cells assessed as cell growth inhibition; assay type: functional, cell-based
HepG2 [2] = test: Cytotoxicity against human HepG2 cells assessed as cell growth inhibition; assay type: functional, cell-based
MDA-MB-231 = test: Cytotoxicity against human MDA-MB-231 cells assessed as cell growth inhibition; assay type: functional, cell-based
HeLa = test: Cytotoxicity against human HeLa cells assessed as cell growth inhibition; assay type: functional, cell-based
A549 [3] = test: Cytotoxicity against human A549 cells assessed as cell growth inhibition; assay type: functional, cell-based
[4] = Phototoxicity against rat AY-27 cells assessed as cell growth inhibition incubated for 2 hrs followed by diode laser illumination in presence of HAL by MTT assay relative to control; assay type: functional; set-up: scale not given: the % may be the effect or the level left
MGC-803 [5] = test: Antitumor activity against human MGC-803 cells xenografted in mouse assessed as inhibition of tumor growth at 50 mg/kg, po administered relative to control; assay type: functional; conditions: read-out: TGI
A549 [6] = test: Cytotoxicity against human A549 cells assessed as cell growth inhibition measured after 48 hrs by MTT assay; assay type: functional, cell-based; conditions: A549, 48 h
HepG2 [7] = test: Cytotoxicity against human HepG2 cells assessed as cell growth inhibition measured after 48 hrs by MTT assay; assay type: functional, cell-based; conditions: HepG2, 48 h
MDA-MB-468 = test: Phototoxicity against human MDA-MB-468 cells assessed as cell growth inhibition incubated for 24 hrs followed by LED illumination by MTT assay; assay type: functional, cell-based; conditions: MDA-MB-468, light or radiation study
PANC-1 = test: Cytotoxicity against human PANC-1 cells assessed as cell growth inhibition measured after 72 hrs XTT assay; assay type: functional, cell-based; conditions: PANC-1, 72 h
PC-3 = test: Cytotoxicity against human PC-3 cells assessed as cell growth inhibition measured after 72 hrs XTT assay; assay type: functional, cell-based; conditions: PC-3, 72 h
Estrogen receptor beta = Estrogen receptor beta (Homo sapiens, UniProt Q92731); test: Inhibition of human recombinant ERbeta expressed in baculovirus expression system measured after 20 mins by fluorescent polarisation Assay
Estrogen receptor beta, sequence (Q92731 whole entry): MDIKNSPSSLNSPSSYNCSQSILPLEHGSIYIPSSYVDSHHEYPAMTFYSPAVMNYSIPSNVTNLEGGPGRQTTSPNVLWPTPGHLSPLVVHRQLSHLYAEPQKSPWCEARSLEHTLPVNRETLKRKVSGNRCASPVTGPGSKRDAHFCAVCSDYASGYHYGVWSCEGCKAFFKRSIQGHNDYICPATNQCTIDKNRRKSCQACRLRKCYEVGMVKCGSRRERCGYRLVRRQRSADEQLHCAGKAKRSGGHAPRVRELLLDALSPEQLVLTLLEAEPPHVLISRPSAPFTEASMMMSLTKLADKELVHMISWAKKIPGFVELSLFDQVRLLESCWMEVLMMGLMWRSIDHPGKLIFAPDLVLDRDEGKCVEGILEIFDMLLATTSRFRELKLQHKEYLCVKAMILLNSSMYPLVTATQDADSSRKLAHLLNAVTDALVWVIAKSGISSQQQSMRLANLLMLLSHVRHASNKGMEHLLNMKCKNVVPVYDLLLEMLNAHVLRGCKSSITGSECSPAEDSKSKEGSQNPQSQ

Estrogen receptor = target: T1, Estrogen receptor (Homo sapiens, UniProt P03372); test: Inhibition of human recombinant ERalpha expressed in baculovirus expression system measured after 20 mins by fluorescent polarisation Assay
T1 sequence (P03372 whole entry): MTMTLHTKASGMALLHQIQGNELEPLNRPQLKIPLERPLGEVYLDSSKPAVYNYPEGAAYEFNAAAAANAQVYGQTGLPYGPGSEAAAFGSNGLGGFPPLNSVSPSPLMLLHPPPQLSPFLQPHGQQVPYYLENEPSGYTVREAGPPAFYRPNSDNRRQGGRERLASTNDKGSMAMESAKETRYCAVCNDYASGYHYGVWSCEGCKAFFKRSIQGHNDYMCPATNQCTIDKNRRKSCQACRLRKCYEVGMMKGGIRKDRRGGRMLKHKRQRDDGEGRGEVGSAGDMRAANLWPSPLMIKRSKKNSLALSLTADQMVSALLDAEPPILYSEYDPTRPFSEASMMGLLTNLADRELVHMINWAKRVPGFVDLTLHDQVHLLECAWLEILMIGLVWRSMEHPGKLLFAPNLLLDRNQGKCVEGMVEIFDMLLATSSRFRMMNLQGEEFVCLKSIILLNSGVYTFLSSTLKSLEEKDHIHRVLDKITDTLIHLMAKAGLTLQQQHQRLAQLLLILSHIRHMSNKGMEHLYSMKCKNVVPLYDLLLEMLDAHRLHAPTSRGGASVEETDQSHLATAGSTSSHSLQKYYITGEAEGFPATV

MCF7 = test: Cytotoxicity against human MCF7 cells assessed as cell growth inhibition by MTT assay; assay type: functional, cell-based

COc1ccc(/C=C\c2cc(OC)c(OC)c(OC)c2)cc1OC(=O)CCn1cc(F)c(=O)[nH]c1=O
IC50 (MGC-803 [1]): < 0.3 nM
IC50 (HepG2 [2]): 7330 nM
IC50 (MDA-MB-231): 80600 nM
IC50 (HeLa): 30 nM
IC50 (A549 [3]): < 0.3 nM

CCN(CC)c1ccc2c(-c3ccccc3C(=O)OCC3CCN(/C=C/C(=O)Oc4cc(/C=C\c5cc(OC)c(OC)c(OC)c5)ccc4OC)CC3)c3ccc(=[N+](CC)CC)cc-3oc2c1.[Cl-]
Activity [4]: 100%

COc1ccc(/C=C\c2cc(OC)c(OC)c(OC)c2)cc1OC(=O)Cn1cc(F)c(=O)[nH]c1=O
IC50 (MGC-803 [1]): < 0.3 nM
inhibition in vivo at 50 mg/kg (MGC-803 [5]): 75%
IC50 (HepG2 [2]): 22.8 nM
IC50 (MDA-MB-231): 400 nM
IC50 (HeLa): 31 nM
IC50 (A549 [3]): < 0.3 nM

COc1ccc(/C=C\c2cc(OC)c(OC)c(OC)c2)cc1OC(=O)C1=CC(C)(C)N(O)C1(C)C
IC50 (A549 [6]): 160 nM
IC50 (HepG2 [7]): 3270 nM

CCc1c2c(nc3ccc(OC(=O)N4CCC(N5CCCCC5)CC4)cc13)-c1cc3c(c(=O)n1C2)COC(=O)[C@]3(O)CC [IRINOTECAN]
IC50 (A549 [6]): 2000 nM
IC50 (HepG2 [7]): 34100 nM

COc1ccc(/C=C\c2cc(OC)c(OC)c(OC)c2)cc1OC(=O)C1=CC(C)(C)N(O)C(C)(C)C1
IC50 (A549 [6]): 150 nM
IC50 (HepG2 [7]): 3580 nM

O=c1[nH]cc(F)c(=O)[nH]1 [FLUOROURACIL]
IC50 (MDA-MB-231): 97000 nM
IC50 (HeLa): 113 nM
IC50 (A549 [3]): 34900 nM

COc1ccc(/C=C\c2cc(OC)c(OC)c(OC)c2)cc1O [COMBRETASTATIN A4]
IC50 (MGC-803 [1]): 20.6 nM
IC50 (HepG2 [2]): 12.8 nM
IC50 (A549 [6]): 35 nM
IC50 (MDA-MB-231): 3.3 nM
IC50 (MDA-MB-468): 16 nM
IC50 (HepG2 [7]): 2390 nM
IC50 (HeLa): 400 nM
IC50 (A549 [3]): 2.54 nM

COc1ccc(/C=C\c2cc(OC)c(OC)c(OC)c2)cc1OC(=O)C1CC(C)(C)N(O)C(C)(C)C1
IC50 (A549 [6]): 170 nM
IC50 (HepG2 [7]): 11200 nM

CC[C@H](C)[C@H](NC(=O)[C@@H](N)CC(C)C)C(=O)N[C@@H](Cc1ccc(O)cc1)C(=O)N1CCC[C@H]1C(=O)N[C@@H](CCCNC(=N)N)C(=O)N[C@@H](CCCNC(=N)N)C(=O)NCCCCCC(NC(=O)[C@@H](CCCNC(=N)N)NC(=O)[C@@H](CCCNC(=N)N)NC(=O)[C@@H]1CCCN1C(=O)[C@H](Cc1ccc(O)cc1)NC(=O)[C@@H](NC(=O)[C@@H](N)CC(C)C)[C@@H](C)CC)C(=O)NC(CCCCNC(=O)C(CCCCNC(=O)[C@H](CCCNC(=N)N)NC(=O)[C@H](CCCNC(=N)N)NC(=O)[C@@H]1CCCN1C(=O)[C@H](Cc1ccc(O)cc1)NC(=O)[C@@H](NC(=O)[C@@H](N)CC(C)C)[C@@H](C)CC)NC(=O)[C@H](CCCNC(=N)N)NC(=O)[C@H](CCCNC(=N)N)NC(=O)[C@@H]1CCCN1C(=O)[C@H](Cc1ccc(O)cc1)NC(=O)[C@@H](NC(=O)[C@@H](N)CC(C)C)[C@@H](C)CC)C(=O)NCCC(=O)NC(CCCCNC(=O)CCOCCOCCNC(=O)CCCCC(=O)Oc1cc(/C=C\c2cc(OC)c(OC)c(OC)c2)ccc1OC)C(N)=O (stereo partly drawn)
IC50 (PANC-1): 500 nM
IC50 (PC-3): 850 nM

COc1ccc(/C=C\c2cc(OC)c(OC)c(OC)c2)cc1OC(=O)C1CC(C)(C)N(O)C1(C)C (stereo not drawn)
IC50 (A549 [6]): 42 nM
IC50 (HepG2 [7]): 1830 nM

COc1ccc(/C=C\c2cc(OC)c(OC)c(OC)c2)cc1OC(=O)N(C)CCOc1ccc(C(=C2CCC(C)CC2)c2ccc(O)cc2)cc1 (stereo not drawn)
IC50 (Estrogen receptor beta): 115 nM
IC50 (Estrogen receptor): 15 nM
IC50 (MCF7): 5.7 nM
